Laboratory results reported in US8846115B2, “Anti-inflammatory cyclooxygenase inhibitors” (Metaproteomics, LLC, priority 2001, dated 2014).
Like-named read-outs stand apart in the source and are kept apart here.

For iso-alpha acids, the “Solubility (aqueous solution that can be made)” value (pH 7.5) was 20 % aqueous solution and the “Solubility (aqueous solution that can be made)” value (pH 9) was 30 % aqueous solution.
